The source of these data is patent US12458627B2, “Autotaxin inhibitors and uses thereof” (DF 2024 IP Acquisition, LLC, priority 2015, dated 2025).

The target in data set [1] is ENPP3 (Homo sapiens (Human), UniProt O14638). Kind of data set: In vitro ENPP3 inhibition assay. Type of data set: biochemical.
In data set [2] the test system is CDAA/HFD fed mice. The experiment in a line: Mouse CDAA/HFD model of liver fibrosis. Type of data set: in vivo. On the procedure:
Mice are fed a choline deficient diet supplemented with 0.1% methionine and 60% kCal fat (CDAA/HFD) for 12-14 weeks. Mice receive 1, 3, 10, or 30 mpk of autotaxin inhibitor test compound or vehicle starting at the beginning of week 6 after feeding (therapeutically). The following liver enzymes are measured weekly: aspartate transaminase, alkaline phosphatase and bilirubin. At the end of the study, mice are sacrificed and the liver harvested and frozen at −80° C. for the biochemical analysis of liver fibrosis or fixed in neutral-buffered formalin for histological assessment of liver fibrosis. For the biochemical assessment of liver fibrosis, liver tissue homogenates are analyzed for collagen concentration using a hydroxyproline assay. For the histological assessment of liver fibrosis, fixed liver tissue is stained with Picrosirius Red (PSR) stain and severity of liver fibrosis scored using light microscopy. After qualitative scoring of liver fibrosis, quantitation of fibrosis was determined using whole slide images captured at 20× magnification and calculating the percentage of the liver section that was PSR-positive using Indica Labs' Halo® area quantification image analysis software.

The test system of data set [3] is Female C57BL/6 mice, DSS-induced colitis. The experiment in a line: Mouse DSS-induced chronic colitis model. The note with it: compared to vehicle. Type of data set: in vivo. As to the method: Autotaxin inhibitors are dosed at 30, 60 or 100 mpk PO once or twice daily from Day 0 to 63. For a positive control, Cyclosporin A (CsA) is dosed at 25 mpk on Days 1-7, 22-28, and 43-49. Mouse body weight, stool consistency, bleeding and overall Disease Activity Index (DAI) is recorded daily. After 64 days, mouse colons are removed and their length and weights recorded. Colonic sections are stained with hematoxylin and eosin stain (H&E stain) and scored based on inflammatory cell infiltration and tissue damage. Colonic sections are also stained with trichrome and scored for fibrosis.

Data set [4] relates to C57B16/J male mice fed a high fat diet. The experiment in a line: Glucose tolerance in mice fed a high fat diet. Type of data set: in vivo, mouse. As to conditions: 15 mg/kg twice daily for two days prior to sampling and once on the day of sampling. As to the method:
C57B16/J male mice are fed a normal diet until 6-10 weeks of age. […] For determination of blood glucose, mice are administered test compound orally in 0.5% methocel once or twice daily for several days prior to the glucose challenge. On the day of the glucose tolerance test (GTT) mice are fasted for 6-8 hours and a last dose of test compound administered orally 1-3 hours before the intraperitoneal (i.p.) injection of 1 g/kg D-glucose (Sigma). Blood from the tail vein is sampled before the glucose load (baseline glucose) and every 15-30 min over the next 120 min after the glucose challenge to monitor blood glucose concentration. Blood glucose is quantified using a glucose meter (Accu-Chek, Roche Diagnostics or AlphaTRAK, Abbott Animal Health) and plotted vs. time. Total blood glucose area under the curve (AUC) after the i.p. glucose challenge is calculated from the time plot using GraphPad Prism6.

Data set [5] relates to MDA-MB-435S human melanoma line. The experiment in a line: cells. The note with it: read-out: IC50 cell migration.
Protocol: The day before the assay, cells are serum-starved overnight in media containing 0.1-0.2% fatty-acid-free BSA. On the day of the assay, the conditioned media is removed from the cells, centrifuged for clarification and set aside. The cells are then harvested by scraping, counted, and pelleted by centrifugation. […] The assays are performed in duplicate using the Neuroprobe 96-well chemotaxis system with 8 m pore size and fibronectin-coated filters. 152 μL cells are added to 8 μL test autotaxin inhibitor compound and incubated for 15 min at 37° C. […] The filters are incubated at 37° C. for 1-24 hours and non-migrated cells removed from the top of the filter by rinsing with PBS and scraping. The filter is air dried then stained before reading the absorbance at 580 nm.
Data set [6] concerns the target ENPP1 (Homo sapiens (Human), UniProt P22413). The experiment in a line: In vitro ENPP1 inhibition assay. It is filed as biochemical.
Data set [7] has as its system Male Wistar rats, DNBS-induced colitis. Kind of data set: Rat DNBS-induced acute colitis model. It is filed as in vivo. On the procedure: Male Wistar rats weighing 150-160 g are intracolonically administered 0.5 ml of 50 mg/ml DNBS in 30% ethanol on Day 1 or vehicle control. Autotaxin inhibitors are dosed at 5 mpk in 0.5% MC once daily from Day 0 to Day 6. Sulfasalazine is dosed at 300 mpk in 0.5% CMC-Na from Day 1 to Day 7. The rats are monitored for body weight and stool consistency daily. At study termination, colon length, colon weight, ulcer area and Masson's trichrome staining are assessed.

In data set [8] the target is ENPP7 (Homo sapiens (Human), UniProt Q6UWV6). The experiment in a line: In vitro ENPP7 inhibition assay. Type of data set: biochemical.
Chain of ENPP7 (Q6UWV6 22-458, species assumed): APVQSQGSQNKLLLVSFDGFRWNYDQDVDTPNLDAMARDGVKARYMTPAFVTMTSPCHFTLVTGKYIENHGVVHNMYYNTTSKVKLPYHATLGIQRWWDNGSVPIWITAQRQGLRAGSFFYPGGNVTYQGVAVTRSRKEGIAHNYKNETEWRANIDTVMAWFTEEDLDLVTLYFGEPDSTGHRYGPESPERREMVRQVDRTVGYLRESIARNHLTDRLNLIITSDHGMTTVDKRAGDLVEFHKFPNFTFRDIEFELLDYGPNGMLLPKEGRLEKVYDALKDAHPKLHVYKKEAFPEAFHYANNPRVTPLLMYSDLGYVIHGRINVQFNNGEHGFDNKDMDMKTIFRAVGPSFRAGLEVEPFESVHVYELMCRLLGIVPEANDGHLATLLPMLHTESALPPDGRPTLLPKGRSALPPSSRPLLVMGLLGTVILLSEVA
For data set [9], the target named is ENPP6 (Homo sapiens (Human), UniProt Q6UWR7). The experiment in a line: In vitro ENPP6 inhibition assay. Type of data set: biochemical.
Chain of ENPP6 (Q6UWR7 23-440, species assumed): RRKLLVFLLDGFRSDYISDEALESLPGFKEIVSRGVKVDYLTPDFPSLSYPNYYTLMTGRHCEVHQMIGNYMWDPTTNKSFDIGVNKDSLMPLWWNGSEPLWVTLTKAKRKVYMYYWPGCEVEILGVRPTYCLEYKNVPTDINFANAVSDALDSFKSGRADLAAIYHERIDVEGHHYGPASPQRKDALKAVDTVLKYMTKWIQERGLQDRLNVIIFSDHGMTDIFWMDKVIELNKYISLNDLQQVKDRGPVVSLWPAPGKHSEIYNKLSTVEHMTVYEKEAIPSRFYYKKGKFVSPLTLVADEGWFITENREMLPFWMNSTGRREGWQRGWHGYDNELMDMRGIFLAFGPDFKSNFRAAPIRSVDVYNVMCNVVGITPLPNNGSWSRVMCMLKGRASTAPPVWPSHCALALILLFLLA
Data set [10] has as its system dog. Kind of data set: Dog liver toxicity study. Type of data set: in vivo. On the procedure:
In some embodiments, liver toxicity can be assessed in suitable in vivo assays. In some embodiments, liver toxicity is assessed by monitoring any increases in the levels of liver markers ALT, AST, AlkP and bilirubin.

In data set [11] the target is human autotaxin (Homo sapiens (Human), UniProt Q13822). Kind of data set: Human autotaxin assay. It is filed as biochemical. As to conditions: concentrated conditioned media from Hep3B cells; LPC substrate, choline release.
[12] abbreviates: 5 mpk once daily, DNBS acute colitis.
[13] abbreviates: 5 mpk once daily, similar to sulfasalazine.

Chain of ENPP3 (O14638 whole entry, species assumed): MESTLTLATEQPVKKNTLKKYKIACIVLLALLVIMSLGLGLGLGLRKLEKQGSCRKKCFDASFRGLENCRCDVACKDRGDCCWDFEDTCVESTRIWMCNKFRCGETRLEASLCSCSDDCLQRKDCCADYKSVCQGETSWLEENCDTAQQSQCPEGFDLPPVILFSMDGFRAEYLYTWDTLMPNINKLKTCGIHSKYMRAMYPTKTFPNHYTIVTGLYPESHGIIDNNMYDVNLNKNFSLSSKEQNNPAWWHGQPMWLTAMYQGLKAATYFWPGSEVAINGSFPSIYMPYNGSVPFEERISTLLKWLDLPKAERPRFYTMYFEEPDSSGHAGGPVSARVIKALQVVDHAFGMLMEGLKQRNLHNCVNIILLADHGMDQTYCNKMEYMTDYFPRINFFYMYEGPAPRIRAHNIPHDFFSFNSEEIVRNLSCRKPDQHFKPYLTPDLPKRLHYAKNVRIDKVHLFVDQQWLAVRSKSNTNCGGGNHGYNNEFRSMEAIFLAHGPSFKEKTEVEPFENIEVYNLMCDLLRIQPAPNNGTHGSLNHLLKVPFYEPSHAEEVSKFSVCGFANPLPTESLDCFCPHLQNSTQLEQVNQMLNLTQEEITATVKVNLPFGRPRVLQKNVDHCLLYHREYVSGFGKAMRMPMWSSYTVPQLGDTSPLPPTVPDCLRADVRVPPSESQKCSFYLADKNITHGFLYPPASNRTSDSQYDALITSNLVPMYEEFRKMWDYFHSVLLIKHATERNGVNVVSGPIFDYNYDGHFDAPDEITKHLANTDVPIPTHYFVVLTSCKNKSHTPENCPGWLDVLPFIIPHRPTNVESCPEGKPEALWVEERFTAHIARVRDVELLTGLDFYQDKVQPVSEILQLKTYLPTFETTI
Chain of ENPP1 (P22413 whole entry, species assumed): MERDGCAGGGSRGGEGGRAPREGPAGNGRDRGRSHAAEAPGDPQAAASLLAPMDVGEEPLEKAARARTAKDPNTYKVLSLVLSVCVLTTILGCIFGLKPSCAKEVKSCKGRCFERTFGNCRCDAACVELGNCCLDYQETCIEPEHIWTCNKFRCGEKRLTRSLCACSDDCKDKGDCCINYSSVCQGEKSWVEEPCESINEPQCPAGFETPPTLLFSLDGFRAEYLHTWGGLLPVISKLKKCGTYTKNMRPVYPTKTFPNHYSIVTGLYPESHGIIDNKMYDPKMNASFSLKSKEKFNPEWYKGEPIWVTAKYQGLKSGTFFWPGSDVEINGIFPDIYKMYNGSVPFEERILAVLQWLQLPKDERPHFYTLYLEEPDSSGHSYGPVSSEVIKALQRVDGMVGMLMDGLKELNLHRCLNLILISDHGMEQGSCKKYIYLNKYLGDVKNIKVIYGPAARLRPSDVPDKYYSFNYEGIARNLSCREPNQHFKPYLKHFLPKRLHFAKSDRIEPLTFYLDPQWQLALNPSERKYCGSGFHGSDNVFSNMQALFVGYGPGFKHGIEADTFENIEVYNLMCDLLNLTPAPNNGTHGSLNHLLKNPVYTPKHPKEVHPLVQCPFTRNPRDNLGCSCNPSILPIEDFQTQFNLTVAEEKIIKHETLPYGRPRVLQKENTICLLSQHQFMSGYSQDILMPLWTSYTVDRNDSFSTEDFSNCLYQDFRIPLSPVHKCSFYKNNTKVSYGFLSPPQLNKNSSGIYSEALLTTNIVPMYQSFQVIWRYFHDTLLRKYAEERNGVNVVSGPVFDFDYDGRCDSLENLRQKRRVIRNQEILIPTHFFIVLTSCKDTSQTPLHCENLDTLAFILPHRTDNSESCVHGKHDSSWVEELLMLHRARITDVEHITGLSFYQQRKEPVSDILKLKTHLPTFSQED

For `CCCn1cc(-n2c(Cl)c(Sc3cccc(C(=O)O)c3F)c3ccc(Cl)c(F)c32)cn1` [Compound B, 3-((2,6-dichloro-7-fluoro-1-(1-propyl-1H-pyrazol-4-yl)-1H-indol-3-yl)thio)-2-fluorobenzoic acid], the IC50 in [1] is > 10000 nM; in data set [5], 15 nM; in data set [6], > 10000 nM; in [8], > 10000 nM; in [9], > 10000 nM. Moreover, the “decrease in % PSR positive area” value in data set [2] (10 mpk, liver, CDAA/HFD mice) is “approximately 35%”. Also, in data set [2] (10 mpk, therapeutic dosing, CDAA/HFD mice), the liver fibrosis entry is reported as “significantly reduced”. The “hepatic fibrosis (FIG. 4, percent PSR positive area)” value in [2] (dosed therapeutically, mouse CDAA/HFD model) was “attenuate”. Further, the colon length result in [3] is “significant increase”. Besides, the “colon length, longer than vehicle” value in [3] was “at least 30%”. In data set [4], the baseline glucose result is given as “decreased”. Also, the “total blood glucose AUC” value in [4] (i.p. glucose challenge) is “decreased”. Also, the “effect on colitis by reducing ulcer area” value in data set [7] (5 mpk once daily Day 0 to Day 6, DNBS rats) is listed as “positive effect”. Besides, the body weight loss entry in data set [7] (setting [12]) is recorded as “no significant effect”. The stool consistency entry in [7] (setting [12]) is given as “no significant effect”. Besides, the colon weight entry in [7] (setting [13]) is on record as “reduced”. Besides, the ulcer area result in data set [7] (setting [13]) is recorded as “reduced”. Besides, the “liver markers (ALT, AST, AlkP and bilirubin)” value in data set [10] (dog liver toxicity study) is reported as “did not exhibit the same effects”. In [10] (dosed at 100 mpk for 5 days), the “increases in liver markers ALT, AST, AlkP and bilirubin” value is “no increases”.

`O=C1C2Cc3c(n(Cc4ccc(F)cc4)c4ccccc34)CN2C(=O)N1CCC1CCNCC1` (centres unmarked) [Compound C, 4-(2-(6-(4-fluorobenzyl)-1,3-dioxo-5,6,11a-tetrahydro-1H-imidazo[1′,5′:1,6]pyrido[3,4-b]indol-2(3H, 5H, 6H)-yl)ethyl)piperidin-1-ium chloride]: in data set [11], the IC50 is < 500 nM.

In the case of `O=C1C2Cc3c(n(Cc4ccc(F)cc4)c4ccccc34)CN2C(=O)N1CCN1CCNCC1` (centres unmarked) [Compound D, 4-(2-(6-(4-fluorobenzyl)-1,3-dioxo-5,6,11a-tetrahydro-1H-imidazo[1′,5′:1,6]pyrido[3,4-b]indol-2(3H, 5H, 6H)-yl)ethyl)piperazin-1-ium chloride], the IC50 in data set [11] is < 500 nM.

As to `CCn1cc(-n2c(Cl)c(Sc3cccc(C(=O)O)c3F)c3ccc(Cl)c(F)c32)cn1` [Compound E, 3-((2,6-dichloro-1-(1-ethyl-1H-pyrazol-4-yl)-7-fluoro-1H-indol-3-yl)thio)-2-fluorobenzoic acid], in [11], the IC50 is < 500 nM.

With `CCCn1cc(-n2c(Cl)c(Sc3cccc(C(=O)O)n3)c3ccc(Cl)c(F)c32)cn1` [Compound F, 6-((2,6-dichloro-7-fluoro-1-(1-propyl-1H-pyrazol-4-yl)-1H-indol-3-yl)thio)picolinic acid], the IC50 in [11] was < 500 nM.

Take `CCn1cc(-n2c(Cl)c(Sc3cccc(C(=O)O)n3)c3ccc(Cl)c(F)c32)cn1` [Compound G, 6-((2,6-dichloro-1-(1-ethyl-1H-pyrazol-4-yl)-7-fluoro-1H-indol-3-yl)thio)picolinic acid]: the IC50 in data set [11] was < 500 nM.

For `CCCn1cc(-n2c(Cl)c(Sc3cccc(CC(=O)O)c3F)c3ccc(Cl)c(F)c32)cn1` [Compound H, 2-(3-((2,6-dichloro-7-fluoro-1-(1-propyl-1H-pyrazol-4-yl)-1H-indol-3-yl)thio)-2-fluorophenyl)acetic acid], in data set [11], the IC50 is < 500 nM.

With `CCn1cc(-n2c(Cl)c(Sc3cccc(CC(=O)O)c3F)c3ccc(Cl)c(F)c32)cn1` [Compound I, 2-(3-((2,6-dichloro-1-(1-ethyl-1H-pyrazol-4-yl)-7-fluoro-1H-indol-3-yl)thio)-2-fluorophenyl)acetic acid], in data set [11], the IC50 is < 500 nM.
